In a melting point compilation (Tetko et al.; mined from patent text by program, amines drawn as free bases though some values may be those of a salt):

Row | Structure (SMILES) | melting point
1 | N#Cc1ccc2c(c1)OC(c1ccccc1)(c1ccccc1)O2 | 106 to 107 °C
2 | C=C(C(=O)O)c1ccc2c(=O)c3ccccc3ccc2c1 | 232 to 235 °C
3 | O=[N+]([O-])c1c(O)c(O)cc2cc(N=Nc3ccccc3)ccc12 | 238 to 244 °C
4 | O=C1Nc2ccccc2SC(c2ccccc2)=C1Cl | 239 to 241 °C
5 | C=CCNc1nc(NCC(C)(C)C)nc2ccc([N+](=O)[O-])cc12 | 167 to 168 °C
6 | Clc1cc(NCCc2c[nH]cn2)ccn1 | 164 to 165 °C
7 | OCc1cccc(C=CC2N=Cc3cc(Cl)ccc3S2)c1 (configuration not stated) | 143 to 145 °C
8 | CCN(CC)CCn1cc(C(=O)NCc2ccc(Cl)cc2)c(=O)c2cc(CCCO)sc21 | 111 to 114 °C
9 | CCOc1cc(C)c(CCc2ccc(OC)c(OC)c2)cc1OC | 38.4 °C
10 | CCOC(=O)c1ccccc1CCc1ccc2oc(-c3nc(C(C)(C)C)cs3)cc2c1 | 75 to 77 °C
11 | O=C1NC(=O)C2(CCNCC2)N1Cc1ccccc1 | 195 to 196 °C
12 | N#CCc1cccc2c(-c3ccc([N+](=O)[O-])cc3)nccc12 | 219 °C
13 | COc1cc(OCc2ccccn2)ccc1/C=C/c1cc(/C=C/c2cc3ccccc3[nH]2)n[nH]1 | 151 to 152 °C
14 | C=CCNC(=NCCSCc1[nH]cnc1C)NC#N | 113 to 114 °C
15 | CCN(CC)c1ccc(-n2c(CC(=O)O)c(C(=O)O)c3cc(Oc4cccc(Cl)c4)ccc32)cc1 | 186 to 191 °C
16 | CCOC(=O)[C@H]1C=C[C@H](c2ccccc2)n2c(=O)n(CCCl)c(=O)n21 (relative stereo) | 117 to 119 °C
17 | O=[N+]([O-])c1ccc(CS(=O)(=O)CCO)cc1CS(=O)(=O)CCO | 211 to 212 °C
18 | CCCCOc1ccc2c(=O)n(Cc3ccccc3)[nH]c2c1 | 148 to 149 °C
19 | CC(=O)Nc1cccc2c(Br)ccc(C)c12 | 227 to 229 °C
20 | Cc1cccc(C)c1NC(=O)CCCCCc1cccnc1 | 98 to 100 °C
21 | COc1cc2c(cc1O)[nH]c1cc(-c3ccccc3Cl)c3c(c12)C(=O)NC3=O | 194 to 196 °C
22 | CC1(C)C(=O)c2c(cc(OCC(=O)O)c(Cl)c2Cl)C1c1ccccc1 (configuration not stated) | 163 to 164 °C
23 | CSCC(C)(C)NC(=O)c1c(I)cccc1Oc1ccc(Cl)cc1C | 128 to 130 °C
24 | O=C1c2ccccc2C(=O)N1c1cccc(S(F)(F)(F)(F)F)c1 | 188 to 190 °C
25 | OCC=Cc1cccc(-c2nnn[nH]2)c1 | 174 °C
26 | CCN(CC)CCNC(=O)c1cc(Cl)c(N)cc1OCCOC(C)=O | 101 to 102 °C

Row | Structure (SMILES) | melting point
27 | COc1cc(C2c3cc4c(cc3C(N)C3COC(=O)C23)OCO4)cc(OC)c1O[Si](C)(C)C(C)(C)C (configuration not stated) | 236 to 238 °C
28 | CCC(c1ccc(Br)cc1)N(O)C(=O)NC (configuration not stated) | 110 to 112 °C
29 | CCCC(=CC(N)C(=O)O)CP(=O)(O)O (configuration not stated) | 193 °C
30 | CC(O)C(O)c1nc2c(C(F)(F)F)cccc2c(O)c1C(=O)Nc1nccs1 (configuration not stated) | 275 °C
31 | Nc1ccc(OCCCCOc2ccc(N)cc2[N+](=O)[O-])c([N+](=O)[O-])c1 | 194 to 196 °C
32 | CC(C)Oc1ccc(-n2c(C(=O)O)c(C(=O)O)c3cc(Oc4cccc(Cl)c4)ccc32)cc1 | 182 to 190 °C
33 | COc1ccc(CC(=O)NC(NC(Cc2ccccc2C)=NC#N)C(C)(C)C)cc1OC (configuration not stated) | 153 to 155 °C
34 | COc1cc(O)ccc1-c1ccc2cc(O)ccc2c1 | 152 to 154 °C
35 | O=C(OCC1OC(OC(=O)c2ccccc2)C(F)C1OC(=O)c1ccccc1)c1ccccc1 (configuration not stated) | 77 to 78 °C
36 | CCCCCCCCCCCCCCCC(=O)NCCCSc1ccncc1 | 84 to 85 °C
37 | CCCCCCCCCCCCCCCCCC(=O)OC1CCN(O)CC1 | 75 to 80 °C
38 | CSC(C)(C)c1nnc(N)s1 | 195 to 197 °C
39 | COc1ccc(S(=O)(=O)C(Cc2ccc3ccccc3c2)C(=O)NO)cc1 (configuration not stated) | 161 to 163 °C
40 | C=CC(=O)c1cn(C)c2ccccc12 | 106 to 107 °C
41 | CN(C(=O)OC(C)(C)C)[C@H]1CC[C@H](/C=C/CCl)CC1 | 42.5 to 43.9 °C
42 | COC(=O)CN1C(=S)CN=C(c2ccccc2)c2cc(Cl)ccc21 | 180 to 182 °C
43 | CC(C(=O)O)c1c(C(=O)c2ccccc2)[nH]c2cc(Cl)ccc12 (configuration not stated) | 193 to 196 °C
44 | CC(=O)SCCC(=O)OC(=O)CO | 150 to 157 °C
45 | ClCc1ncc(-c2ccccc2)cc1Cl | 74 to 75 °C
46 | CC(=C(c1ccc(F)cc1)c1ccc(F)cc1)P(c1ccccc1)c1ccccc1 | 88 to 90 °C
47 | CON(C(=O)c1cn(C)nc1C(F)F)C(C)Cc1c(Cl)cc(Cl)cc1Cl (configuration not stated) | 110 to 112 °C
48 | CC(C)(C)c1cc(C(=O)c2ccc(C#N)cc2)cc(C(C)(C)C)c1O | 166 to 168 °C
49 | COc1cc2c(Cl)c(C#N)cnc2cc1N1CCN(C)CC1 | 177 to 179 °C
50 | COc1c(C=CC(=O)O)cccc1Oc1ccccc1C | 143 to 146 °C
51 | CC=CCNc1cc(C(=O)O)cc(S(N)(=O)=O)c1Oc1cccc(NC(C)=O)c1 | 198 to 202 °C
52 | CCOCc1nc(C(C)(C)O)c(C(=O)O)n1Cc1ccc(-c2ccccc2C(=O)O)cc1 | 166 to 169 °C

Next, values leading:

Row | melting point | Structure (SMILES)
53 | 221 to 222 °C | CC(C)Nc1nc2c(Br)c(Cl)c(Cl)cc2n1[C@H]1O[C@@H](CO)[C@H](O)[C@@H]1O
54 | 161 to 163 °C | CC(=O)N1CCc2c(c3cccc4c3n2CCS4)C1
55 | 254 to 255 °C | Nc1nc2ccccc2n(-c2ccc(Cl)cc2)c1=O
56 | 142 to 144 °C | COc1ccc(N2CCN(c3c(C)c(C)c4c(c3C)C(O)(c3ccc(F)cc3)C(C)(C)O4)CC2)cc1 (configuration not stated)
57 | 233 °C | Cc1cccc(Cl)c1NC(=O)Nc1cc(NC(C)C)ncn1
58 | 77 to 78 °C | CC(C)Cc1cc(C(=O)N2CCN(CC(C)C)CC2)ccc1OCc1ccc(F)cc1
59 | 245 to 246 °C | Cc1nc(C)c(-c2ccnc(Nc3ccc(Cl)c(CO)c3)n2)s1
60 | > 300 °C | CCc1[nH]n(C2CCCC2)c2nc(C3CCNC4CCCCC43)nc(=O)c1-2 (configuration not stated)
61 | 112 to 114 °C | O=C(CC1CSCCC1=O)c1ccc(F)cc1 (configuration not stated)
62 | 146 °C | CC(=O)n1nc(SCc2ccccc2)nc1N
63 | 139 to 140 °C | CCCc1nn(-c2ccc(C(F)(F)F)cn2)cc1CCCOc1cc(CC(=O)O)cc(OC)c1
64 | 72 °C | CC(C)c1nn2ccccc2c1C(=O)C1CC1
65 | 247 to 250 °C | Cn1ncc(C(=O)N2CC(F)C2)c1C(=O)Nc1ccn2nc(N3CCOCC3)nc2c1
66 | 299 to 303 °C | O=C1Nc2cc(Cl)ccc2C1c1ncnc2nn(C3CCCCC3)cc12 (configuration not stated)
67 | 185 to 188 °C | CCCCCCS(=O)(=O)c1nn2c(=O)c(Cl)c(F)nc2s1
68 | 70 °C | CC(=O)C1=Cc2cc(Br)ccc2OC1
69 | 189 °C | C[C@]12C[C@H](c3ccc(OCCCCCS(=O)CCCC(F)(F)C(F)(F)F)cc3)[C@@H]3c4ccc(OC5CCCC5)cc4CC[C@H]3[C@@H]1CC[C@@H]2O (some centres not stated)
70 | 108 to 112 °C | O=C(CC1CCCCC1=O)c1ccc(-c2ccccc2)cc1 (configuration not stated)
71 | 105 to 106 °C | CC(C)c1nn(-c2ccc(C#N)cn2)cc1CCCO
72 | 186 to 192 °C | N#CC1CN(C(=O)[C@H](NC(=O)c2c[nH]c3ncc(-c4ccc(N5CCOCC5)cc4)nc23)C2CC2)C1
73 | 190 to 192 °C | CC1(C)SCCN(S(=O)(=O)c2ccc(-c3ccc(Br)cc3)cc2)C1C(=O)NO (configuration not stated)
74 | 248 to 251 °C | COc1cccc2c1nc(C(F)F)n2-c1nc(N2CCOCC2)c2ncn(-c3cncnc3)c2n1
75 | 196 to 198 °C | O=c1oc(=O)n(-c2ccccc2)c2ncccc12
76 | 280 to 282 °C | CC1CCN(c2ccc(Nc3ncc4c(n3)S/C(=C/c3ccc([N+](=O)[O-])cc3)C(=O)N4)cc2)CC1
77 | 284 °C | O=C1NN=C(c2ccc3c(c2)C2(CCCS2)C(=O)N3)CS1 (configuration not stated)

Row | melting point | Structure (SMILES)
78 | 75 to 90 °C | Cc1noc(NS(=O)(=O)c2c(C(=O)c3ccc4c(c3)OCO4)sc3ncccc23)c1Cl
79 | 115 to 117 °C | Cc1cc(-c2c[nH]c(C)n2)ccn1
80 | 193 to 195 °C | CN(Cc1cccc2c1C(=O)N(C1CCC(=O)NC1=O)C2=O)C(=O)Nc1cccc(Cl)c1 (configuration not stated)
81 | 143 to 144 °C | Cc1ccc2c(c1)OC(CCO)C(=O)N2 (configuration not stated)
82 | 222 °C | C#CCn1c(=O)c2c(nc(C#Cc3ccc(OC)c(OC)c3)n2C)n(CC)c1=O
83 | 118 to 121 °C | CC(O)Cc1nc(Cl)ccc1N (configuration not stated)
84 | 189 to 190 °C | CNc1nc(C)c(-c2ccnc(Nc3cccc(S(=O)(=O)NCCO)c3)n2)s1
85 | 188 to 190 °C | Cc1nc2ncnn2c2c1CCN2C1CCCCCCC1
86 | 86 to 87 °C | Cc1ccc(C=O)n1Cc1ccc(Cl)cc1Cl
87 | 202 to 205 °C | Cc1cc(C2=NN(C(=O)N[C@H](C)c3ccccc3)[C@H](C)Cc3cc4c(cc32)OCO4)ccc1[N+](=O)[O-]
88 | 168 to 170 °C | CC1(C)CC(=O)C(C(=O)c2cccc3nnsc23)C(=O)C1
89 | 144 to 146 °C | COC(=O)c1ccc(-c2nc3c(OC(C)=O)cccc3s2)cc1
90 | 225 to 227 °C | Cc1nc(O)cc2sccc12
91 | 174 to 176 °C | Clc1ccc(Nc2nnc(Cc3ccncn3)c3ccccc23)cc1
92 | 124 to 125 °C | Cc1ccc(Sc2nc(Cl)c(C#N)cc2F)cc1
93 | 168 to 169 °C | COc1ccc(CN2C(=O)CCc3cc(O)c(OC)cc32)cc1
94 | 243 to 244 °C | CN(C)C(=O)c1cc(O)c2nc(C(F)(F)F)n(C)c2c1
95 | 159 to 161 °C | COC(=O)c1ccc(N2CCCC2=O)c([N+](=O)[O-])c1
96 | 184 to 186 °C | CC(C)c1cccc(-c2c(Cl)ccc3c2C=C(C(=O)O)C(C(F)(F)F)O3)c1 (configuration not stated)
97 | > 260 °C | Cc1sc(Nc2cccc(I)n2)nc1-c1cn[nH]c1
98 | 116 to 118 °C | OC(Cc1ccc(Cl)cc1)(Cn1cncn1)Cn1cncn1
99 | 197 to 198 °C | NS(=O)(=O)c1ccc2c(c1)C(=O)CCC2
100 | 147 to 149 °C | CCC(Oc1cccc(C)c1)C(=O)OC1CC(O)C=C2C=CC(C)C(CCC3CC(O)CC(=O)O3)C21 (mixture of isomers)
101 | 198 to 199 °C | Oc1c(Br)cc(Br)c2c(Cl)ncnc12
102 | 151 to 152 °C | CCCc1nc2cnc3cccnc3c2n1CC1(O)CCOC1 (configuration not stated)
